The record followed here is publication PMC2724674 (Cancer research, 2009).

This assay concerns the target VEGF receptor 2 kinase (VEGFR2, KDR/Flk-1) (Homo sapiens, UniProt P35968). The experiment in a line: in vitro kinase assay. The assay is classed as biochemical.

Each structure is given as a SMILES string.

What is called IC50 is the midpoint of a concentration-inhibition curve. A higher IC50 goes with weaker potency.

Sequence of VEGF receptor 2 kinase (VEGFR2, KDR/Flk-1) (P35968 20-1356): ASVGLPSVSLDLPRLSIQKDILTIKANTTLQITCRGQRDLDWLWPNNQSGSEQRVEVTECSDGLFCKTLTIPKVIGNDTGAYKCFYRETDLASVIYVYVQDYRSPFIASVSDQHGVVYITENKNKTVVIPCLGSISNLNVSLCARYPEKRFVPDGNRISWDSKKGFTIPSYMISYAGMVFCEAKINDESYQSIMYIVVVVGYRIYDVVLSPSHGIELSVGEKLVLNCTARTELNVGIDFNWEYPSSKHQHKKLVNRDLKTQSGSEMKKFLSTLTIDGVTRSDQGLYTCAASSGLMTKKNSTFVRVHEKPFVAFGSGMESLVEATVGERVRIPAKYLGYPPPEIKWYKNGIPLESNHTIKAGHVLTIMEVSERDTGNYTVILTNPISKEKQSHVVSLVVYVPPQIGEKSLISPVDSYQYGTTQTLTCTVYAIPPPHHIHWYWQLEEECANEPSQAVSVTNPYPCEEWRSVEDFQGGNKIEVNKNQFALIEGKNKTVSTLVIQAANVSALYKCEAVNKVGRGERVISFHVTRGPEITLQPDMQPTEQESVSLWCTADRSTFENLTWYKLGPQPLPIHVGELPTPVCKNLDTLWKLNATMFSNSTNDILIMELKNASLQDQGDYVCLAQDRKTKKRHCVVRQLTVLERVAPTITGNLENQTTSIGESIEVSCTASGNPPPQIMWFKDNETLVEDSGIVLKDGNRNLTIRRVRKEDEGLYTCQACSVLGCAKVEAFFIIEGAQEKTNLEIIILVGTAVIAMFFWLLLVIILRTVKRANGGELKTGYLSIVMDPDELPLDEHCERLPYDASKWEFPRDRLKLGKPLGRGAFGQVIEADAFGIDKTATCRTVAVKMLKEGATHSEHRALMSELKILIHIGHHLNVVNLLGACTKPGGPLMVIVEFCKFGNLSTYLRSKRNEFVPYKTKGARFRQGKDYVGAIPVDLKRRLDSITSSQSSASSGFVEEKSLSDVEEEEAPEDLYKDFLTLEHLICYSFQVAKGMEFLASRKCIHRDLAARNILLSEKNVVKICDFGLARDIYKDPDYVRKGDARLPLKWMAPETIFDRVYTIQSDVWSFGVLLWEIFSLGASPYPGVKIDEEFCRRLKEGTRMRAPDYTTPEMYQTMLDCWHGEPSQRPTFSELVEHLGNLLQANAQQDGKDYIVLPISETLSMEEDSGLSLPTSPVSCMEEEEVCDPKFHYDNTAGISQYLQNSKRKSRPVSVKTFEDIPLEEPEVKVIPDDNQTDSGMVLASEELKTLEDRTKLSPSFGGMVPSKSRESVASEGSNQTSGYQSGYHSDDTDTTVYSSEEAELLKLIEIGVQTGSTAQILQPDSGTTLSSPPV

In turn, `CC(=O)O[C@@H]1CC[C@@]2(C)[C@@H](CC[C@]3(C)[C@@H]2C(=O)C=C2[C@@H]4[C@@H](C)[C@H](C)CC[C@]4(C)CC[C@]23C)[C@@]1(C)C(=O)O` [AKBA] came in with a half-maximal inhibitory concentration (IC50) of 1680 nM.
